The results in this text go back to the supplement of paper PMC12613149.

Molecules are shown by their SMILES.

Data set [1] is described as follows: collision cross section (TIMS, N2 drift gas) of the primary ion; higher = larger gas-phase ion size.
A short description of data set [2]: reversed-phase LC retention time (C18, 15 min MeOH gradient); higher = more hydrophobic / later elution.
Setting [3] is: ionization mode: ESI+, ion species: [M]+.
Setting [4] is: ionization mode: ESI+, ion species: [M+H]+.
The mark [5] stands for this setting: ionization mode: ESI-, ion species: [M-H]-.

The molecule `CCCCCCCCCCCCCCCC[N+](C)(C)Cc1ccccc1` [Benzyldimethylhexadecylammonium] came in with a collision cross section in data set [1] (setting [3]) of 213.31 Å². For the same molecule, the “reversed-phase LC retention time” value in data set [2] (setting [3]) was determined as 17.8 min.
For `CC(C)(C)C(O)C(Oc1ccc(-c2ccccc2)cc1)n1cncn1` (stereo unspecified) [Bitertanol], the collision cross section in data set [1] (setting [4]) came to 192.15 Å². For the same molecule, the “reversed-phase LC retention time” value in data set [2] (setting [4]) came out at 15.9 min.
For `[O-][n+]1cccc2ccccc21` [Quinoline N-oxide] the same measures were 124.14 Å² and 7.48 min.
In turn, `NC(N)=NC(=O)Cc1c(Cl)cccc1Cl` [Guanfacine] gave a collision cross section in data set [1] (setting [4]) of 152.13 Å². Moreover, the “reversed-phase LC retention time” value in data set [2] (setting [4]) was determined as 9.65 min.
As for `O=C1Nc2ccc(Cl)cc2C(c2ccccc2)=NC1O` (stereo unspecified) [Oxazepam], the values for the collision cross section in data set [1] (setting [4]) and in data set [1] (setting [5]) were 164.08 Å² and 162.74 Å², respectively. The “reversed-phase LC retention time” value came out at 13.1 min in data set [2] (setting [4]) and 13.4 min in data set [2] (setting [5]).
In the case of `CC(C)N1C(=O)c2cc(O)ccc2NS1(=O)=O` [6-Hydroxybentazone], the collision cross section in data set [1] (setting [5]) is given as 149.95 Å². In addition, the “reversed-phase LC retention time” value in data set [2] (setting [5]) stood at 5.24 min.
`CN(C)c1nc(=O)n(C2CCCCC2)c(=O)n1C` came in with a collision cross section in data set [1] (setting [4]) of 163.21 Å². The “reversed-phase LC retention time” value in data set [2] (setting [4]) turned out to be 11.7 min.
With `CCCC[N+]1(C)[C@H]2CC(OC(=O)C(CO)c3ccccc3)C[C@H]1[C@H]1O[C@H]12` (stereo partly specified) [Scopolamine-N-butyl], the collision cross section in data set [1] (setting [3]) is recorded as 188.31 Å². Besides, the “reversed-phase LC retention time” value in data set [2] (setting [3]) was found to be 9.85 min.
`COc1cc(OC)nc(NC(=O)NS(=O)(=O)c2ncccc2C(=O)N(C)C)n1` [Nicosulfuron]: the collision cross section in data set [1] (setting [4]) turned out to be 193.46 Å²; in data set [1] (setting [5]) it was 194.5 Å². The “reversed-phase LC retention time” value was found to be 11.4 min in data set [2] (setting [4]) and 8.07 min in data set [2] (setting [5]).
In the case of `COCC(C)N(C(=O)C(=O)O)c1c(C)csc1C` (stereo unspecified) [Dimethenamid OA], the collision cross section is given as 155.28 Å² in data set [1] (setting [4]) and 161.26 Å² in data set [1] (setting [5]). Besides, the “reversed-phase LC retention time” value came to 11.3 min in data set [2] (setting [4]) and 10.5 min in data set [2] (setting [5]).
`Cc1c(N(C)C)c(=O)n(-c2ccccc2)n1C` [Dimethylaminophenazone] gave a collision cross section in data set [1] (setting [4]) of 151.98 Å². Also, the “reversed-phase LC retention time” value in data set [2] (setting [4]) amounted to 6.95 min.
In data set [1] (setting [5]), `CC(C)(c1ccccc1)c1ccc(O)cc1` [4-Cumylphenol] had a collision cross section of 156.38 Å². Also, in data set [2] (setting [5]), the “reversed-phase LC retention time” value is 15.7 min.
For `NC(=O)N1c2ccccc2C=Cc2cc(O)ccc21` [2-Hydroxycarbamazepine], the collision cross section in data set [1] (setting [4]) was 155.33 Å². The “reversed-phase LC retention time” value in data set [2] (setting [4]) was 10.3 min.
For `CC(C)Nc1nc(N)nc(Cl)n1` [Atrazine desethyl], in that order: 138.83 Å² and 9.74 min.
For `CCCCCCOC(=O)c1ccccc1C(=O)c1ccc(N(CC)CC)cc1O` [Uvinul A Plus], in that order: 209.29 Å² and 17.4 min.
Molecule `CCCCCCCCCCN(C)C` [N,N-Dimethyldecylamine] returned a collision cross section in data set [1] (setting [4]) of 158.65 Å². In addition, in data set [2] (setting [4]), the “reversed-phase LC retention time” value came to 13.7 min.
Regarding `COc1cc(C2c3cc4c(cc3C(OC3OC5COC(C)OC5C(O)C3O)C3COC(=O)C23)OCO4)cc(OC)c1O` (stereo unspecified) [Etoposide], the collision cross section in data set [1] (setting [4]) came out at 250.37 Å². In addition, the “reversed-phase LC retention time” value in data set [2] (setting [4]) was determined as 11.6 min.
In turn, `CCCCCCCCCC(=O)N(C)C` [N,N-Dimethyldecan-1-amide] displayed a collision cross section in data set [1] (setting [4]) of 159.08 Å². Besides, the “reversed-phase LC retention time” value in data set [2] (setting [4]) stood at 16.1 min.
`Oc1cc(Cl)c(Cl)c(Cl)c1` [3,4,5-Trichlorophenol] yielded a collision cross section in data set [1] (setting [5]) of 126.86 Å². Further, in data set [2] (setting [5]), the “reversed-phase LC retention time” value turned out to be 14.7 min.
For `O=C(O)c1cc(Oc2ccc(Cl)cc2Cl)ccc1[N+](=O)[O-]` [Bifenox free acid], the collision cross section in data set [1] (setting [5]) was 177.92 Å². In data set [2] (setting [5]), the “reversed-phase LC retention time” value was 13.1 min.
In data set [1] (setting [4]), `N#CCNC(=O)c1cnccc1C(F)(F)F` [Flonicamid] registered a collision cross section of 149.83 Å². The “reversed-phase LC retention time” value in data set [2] (setting [4]) stood at 7.31 min.
For `COC[P+](c1ccccc1)(c1ccccc1)c1ccccc1` [(Methoxymethyl)triphenylphosphonium], the collision cross section in data set [1] (setting [3]) turned out to be 170.42 Å². In addition, in data set [2] (setting [3]), the “reversed-phase LC retention time” value amounted to 10.6 min.
Regarding `CCNS(=O)(=O)C(F)(F)C(F)(F)C(F)(F)C(F)(F)C(F)(F)C(F)(F)C(F)(F)C(F)(F)F` [2-N-Ethylperfluorooctanesulfonamide], in data set [1] (setting [5]), the collision cross section came out at 178.3 Å². In addition, the “reversed-phase LC retention time” value in data set [2] (setting [5]) worked out at 17.6 min.
Molecule `COc1cc2nc(N3CCNCC3)nc(N)c2cc1OC` [6,7-Dimethoxy-2-(piperazin-1-yl)quinazolin-4-amine] yielded a collision cross section in data set [1] (setting [4]) of 172.06 Å². In addition, the “reversed-phase LC retention time” value in data set [2] (setting [4]) stood at 6.11 min.
Turning to `O=c1[nH]nc(C(F)(F)F)s1` [Thiadone], in data set [1] (setting [5]), the collision cross section was 115.69 Å². Further, in data set [2] (setting [5]), the “reversed-phase LC retention time” value was 6.79 min.
In data set [1] (setting [4]), `CN(C)C(=O)C(CCN1CCC(O)(c2ccc(Cl)cc2)CC1)(c1ccccc1)c1ccccc1` [Loperamide] showed a collision cross section of 221.69 Å². The “reversed-phase LC retention time” value in data set [2] (setting [4]) turned out to be 13.6 min.
As for `Cn1ncc(N)c(Cl)c1=O` [Methyldesphenylchloridazon], the collision cross section in data set [1] (setting [4]) came out at 123.51 Å². In data set [2] (setting [4]), the “reversed-phase LC retention time” value is 5.06 min.
Regarding `Cc1cccc(Nc2ccncc2S(=O)(=O)NC(=O)NC(C)C)c1` [Torasemide], the results for the collision cross section in data set [1] (setting [4]) and in data set [1] (setting [5]) were 188.49 Å² and 184.59 Å², respectively. Besides, the “reversed-phase LC retention time” value in data set [2] (setting [4]) turned out to be 11.5 min; in data set [2] (setting [5]) it was 12.4 min.
For `Oc1cc(Cl)ccc1Oc1ccc(Cl)cc1` [Diclosan], the collision cross section in data set [1] (setting [5]) turned out to be 152.57 Å². For the same molecule, in data set [2] (setting [5]), the “reversed-phase LC retention time” value was determined as 16.2 min.
